A value given as a limit tells only on which side of the number the result lay.

On to `Cc1nnc(NCCN(C)C)nc1C`, for which the melting point (usually the temperature, or range, at which the solid turns liquid) was 46 to 49 °C.
For `C=C1[C@@H](NC(=O)C(F)(F)F)CC(O)O[C@H]1C` (some centres undefined) the value was 168 to 170 °C; for `COC(=O)c1cc(C(=O)c2c(C)c(OC)c3c(OCC(=O)OC(C)(C)C)cccn23)ccc1N`, 188 °C; for `CCC(CC)(Cc1ccc(Cl)cc1)C(O)c1cccnc1` (centres undefined), 128 to 129 °C.
With `CNc1c2c(nc3ccccc13)CCCC2O` (centres undefined) the figure was 160 to 161 °C; with `CN1C(=O)CC[C@]2(C)c3ccc(-c4ccc(Cl)cc4Cl)cc3CC[C@@H]12`, 45 to 48 °C.
The compound `CS(=O)c1ccc(C2=C(c3ccccc3)C(=O)C(C)(C)O2)c(F)c1` (centres undefined) yielded a melting point of 149 to 150 °C.
With `CC(C)c1nc(-c2ccccc2)nc(-c2ccc(F)cc2)c1C=CI` the figure was 119 to 122 °C.
With `Cc1ccc2c(c1)C(CCCCN1CCN(c3cccc(Cl)c3)CC1)C(=O)N2` (centres undefined) the figure was 122 to 124 °C.
With `Cc1ccc(C2SC(=S)N(C(=O)NN3CCOCC3)C2C)cc1` (centres undefined) the figure was 101 to 103 °C; with `O=Cc1ccc(-c2cccc(-c3ccc(OC(F)(F)F)cc3)n2)cc1`, 109 to 112 °C; with `NS(=O)(=O)c1ccccc1C(=O)OC1COC1`, 169 to 170 °C.
Take `N#CC1(c2ccc(C(=O)c3cccs3)cc2)CC1`: the melting point was determined as 106 °C.
With `CC(C)NC(=O)c1nc(-c2ccccc2)c(-c2ccc(=O)n(C(C)C)n2)s1` the figure was 131 to 132 °C.
`Cc1cc(C)c(Nc2nc(Nc3ccc(C#N)cc3)nc(Cl)c2Br)c(C)c1` had a melting point of 220 to 221 °C.
In the case of `COCCOc1cc2ncc(C#N)c(Nc3ccc4cn[nH]c4c3)c2cc1OCCOC`, the melting point lay in the range of 105 to 110 °C.
With `Cc1cc2oc(=O)c(NC(=O)Nc3cccc(C(F)(F)F)c3)c(-c3ccccc3C)c2cc1Cl` the figure was 203 to 205 °C; with `CN(C)CC1CN(c2ccccc2)NC1=N` (centres undefined), 117 to 118 °C; with `Cc1ccc2c(c1)NC(=S)C2=O`, 246 °C.
For `Cc1nc2cc(C)c(CN(C)c3ccc(C(=O)NC(CO)c4cccc([N+](=O)[O-])c4)cc3)cc2c(=O)[nH]1` (centres undefined) the value was 231 to 240 °C.
For `CCCCOC(=O)c1cc(OC)c(Cc2cnc(N)nc2N)c(OC)c1` the value was 186 to 188 °C; for `CC(C)CCN1CCC(N(C)S(=O)(=O)c2ccc(Nc3nccc(Nc4ccc(F)cc4)n3)cc2)CC1`, 184 to 185 °C.
For `CC(C)(C)OC(=O)NCCS(=O)(=O)Nc1ccc2c(c1)C(=O)Nc1cccnc1N2`, the melting point is 195 to 198 °C.
Consider `CC(C)(C)C(=O)SC[C@H](NC(=O)C(C)(C)SC(=O)C(C)(C)C)C(=O)O`, for which the melting point lay in the range of 140 to 141 °C.
With `O=C(/C=C/c1ccccc1)N1CCCC1` the figure was 100 °C; with `CCCCCCCCCCCCN(N)C(=O)NC`, 73 to 75 °C; with `COc1cccc(C(Cn2ccnc2)=[N+](C)[O-])c1`, 87 to 90 °C.
For `CCCc1nn(-c2ccc(C(F)(F)F)cn2)cc1CCCOc1cc(CCC(=O)O)ccc1OC` the value was 147 to 148 °C.
With `COc1ccc(-n2cccc2-c2ccc(S(C)(=O)=O)cc2)cc1OC` the figure was 124 to 126 °C.
As for `O=[N+]([O-])c1ccc(Br)cc1-c1cc(-c2cccc(Br)c2)on1`, the melting point lay within 195 to 197 °C.
Regarding `CCOC(=O)C(=CNC1CC1)C(=O)c1cc(F)c(F)c(Cl)c1F`, the melting point is 78 to 80 °C.
In the case of `CCOCc1cc(O)cc2cc(-c3ccc(O)cc3)oc12`, the melting point lay within 166 to 168 °C.
For `CNC(=O)c1cc(NC(=O)c2ccc(C)c(Nc3nccc(-c4cccnc4)n3)c2)cc(N2CCOCC2)c1` the value was 153 to 156 °C; for `CCN(CC)CCNc1ccc(C=O)c2sc3ccc(Br)cc3c(=O)c12`, 145 to 146 °C; for `OC1CCn2c(CCc3ccccc3)nc3cccc1c32` (centres undefined), 125 to 126 °C.
With `O=S(=O)(CC(O)(CI)c1ccccc1)c1ccccc1` (centres undefined) the figure was 98 °C; with `CC(=O)SCC(CC(C)C)C(=O)NCCCCCCCC(=O)N[C@@H](CCCNC(=N)N)C(=O)O` (some centres undefined), 85 to 102 °C.
For `COc1cc2oc(=O)c3c(c2cc1OC)CCN(CC(C)=O)C3` the value was 168 to 172 °C.
`Cn1ccnc1Sc1cccc(-c2nc(=O)c3ccccc3s2)n1` had a melting point of 172 °C.
For `CCCc1cn2ccccc2c1C(=O)c1ccc(OS(=O)(=O)c2ccc(C)cc2)cc1` the value was 95 to 97 °C; for `CC1=C(CN2CC(C(=O)O)C2)CCc2cc(OCc3ccc(C(F)(F)F)cc3C(F)(F)F)ccc21`, 155 to 165 °C; for `CC(=O)NCc1ccc(CN2CCN(c3ccc(F)cc3)CC2)cc1N`, 163 to 164 °C.
With `O=C(NC(=O)c1cc(F)c(Cl)nc1Cl)NC1CC1` the figure was 171 to 173 °C.
For `Cc1nn(C)c2nc(-c3ccncc3)nc(N)c12` the value was 235 to 236 °C; for `O=C(O)c1cccn1-c1ccc(F)cc1`, 195 to 196 °C.
For the compound `Fc1cccc(NC(=S)c2ccccn2)c1`, the melting point lay within 72 to 76 °C.
For `Cc1cc(-c2cc(C(F)(F)F)n3ncc(-c4ccncc4)c3n2)ccc1Cl` the value was 247 °C; for `CN(C(=O)c1cccs1)c1cccc2cc(-c3nccs3)[nH]c12`, 250 °C; for `C=CC(=O)NC(C)(C)C(=O)NCC(OC)OC`, 80 to 82 °C.
Take `Oc1cc(O)c2c(c1)Oc1cc(Br)ccc1CC2`: the melting point was in the range of 178 to 180 °C.
With `CCNC(=O)N1CCc2cc(S(=O)(=O)n3cc(-c4ccccc4)[nH]c3=O)ccc21` the figure was 234 to 235 °C; with `COC(=O)c1ccc(Cl)cc1O`, 27 to 30 °C; with `CCOC(=O)CNc1ccccc1C(N)=O`, 147 to 148 °C.
Regarding `O=C(Nc1ccccc1OCC1CO1)c1cccc2[nH]ccc12` (centres undefined), the melting point came out at 122 °C.
With `CN(C)C1CC2=CNC=C3C=C(C#N)OCC1=C32` (centres undefined) the figure was 205 to 207 °C.
For `CCC=CCn1c(C)c(C)c2cnnc(OCc3ccccc3)c21` the value was 92 to 93 °C.
For `C#Cc1sc(C2=NOC(c3cc(Cl)cc(Cl)c3)(C(F)(F)F)C2)cc1C` (centres undefined) the value was 105 to 107 °C; for `CC(=O)c1ccc2c(c1)Sc1cc(C(C)=O)ccc1O2`, 179 °C.
`Cn1c(=O)c2ccccc2n(CCCCCl)c1=O` came in with a melting point of 99 to 100 °C.
With `Cc1cc(NC(=O)CN2CCN(c3ncccc3C#N)CC2)ccc1F` the figure was 111 to 113 °C; with `C=Cc1c(C(C)C)nc(C(C)C)c(CCCCC)c1-c1ccc(F)cc1`, 44 to 46 °C.
`COn1c(Br)c(Br)c(C#N)c1-c1ccc(Cl)cc1` yielded a melting point of 190 °C.
For `CC(=O)Nc1cc(NC(C)=C2C(=O)OC(=O)C(C(C)=O)=C2O)cc([N+](=O)[O-])c1` the value was over 270 °C; for `Cc1cc(Cl)cc(COc2cccc(OCc3ccc4ccccc4n3)c2)c1OCc1nnn[nH]1`, 181 to 184 °C.
For `COc1ccc(/C=C/c2c(Cl)cncc2Cl)c2c1OC(C)(C)C2` the value was 114 to 118 °C; for `CNC(=N[N+](=O)[O-])SC`, 150 to 152 °C; for `COC(=O)C1=C(N)C(CCCCC(=O)O)SC1` (centres undefined), 98 to 102 °C.
Compound `Cc1csc(C(C)(O)c2nc(C)cs2)n1` yielded a melting point of 82 to 84 °C.
With `CCOc1c(C)c(N2CCN(c3ccc(OC)cc3)CC2)c(C)c2c1OC(C)(C)C2=O` the figure was 109 to 112 °C; with `Cc1cccc(CC(NC(=O)C(c2ccccc2)c2ccccc2)C(=O)NC(C#N)COCc2cccc(C(=O)O)c2)c1` (centres undefined), 160 to 162 °C.
For `COc1cc(Nc2c(C#N)cnc3cc(OCc4cccs4)c(OC)cc23)c(Cl)cc1Cl` the value was 194 to 196 °C; for `Cc1sc(COc2ccc(/C=C/C=O)cc2)nc1-c1ccccc1`, 116 to 117 °C.
Regarding `COC(=O)C1=C(C)NC(C)=C(c2nc(C)no2)C1c1cccc(N)c1` (centres undefined), the melting point is 248 to 249 °C.
With `O=S(=O)(c1ccc(Cl)cc1)N1CCC[C@@H](Nc2nccc(-c3c(-c4cccc(CO)c4)nc4sccn34)n2)C1` the figure was 150 to 155 °C; with `Cc1nnc2n1-c1sc(C#CCn3c4c(c5ccccc53)CCCC4)cc1C(c1ccccc1Cl)=NC2`, 164 to 166 °C.
For `S=C(NCc1ccccc1)Nc1ccc(NC(=S)NCc2ccccc2)cc1` the value was 198 °C; for `CCCCCCCCCCOC(=O)C1=C(C)NC(N)=C(C(=O)OCC)C1c1cccc([N+](=O)[O-])c1` (centres undefined), 190 to 191 °C; for `Cc1ccc(-n2c(-c3sc(Nc4ccc(Cl)cc4)nc3C)nc3ccccc3c2=O)cc1`, over 275 °C.
For `CCN(CC)CCNc1ccc(C)c2sc3ccc(O)cc3c(=O)c12` the value was 254 to 255 °C.
On to `O=C(c1c[nH]nc1-c1ccccc1)C(CCN1CCC(O)(c2ccccc2)CC1)c1ccc(Cl)c(Cl)c1` (centres undefined), for which the melting point is 99 to 101 °C.
`CCOC(=O)c1cc(-c2nnn(C)n2)c(-c2ccc(F)cc2)s1`: the melting point was 108 to 110 °C.
With `O=C1c2c(O)cccc2C(Sc2ccccc2)c2cccc(O)c21` the figure was 156 to 157 °C.
With `Nc1nc2[nH]c(CCCc3cc(C(=O)N[C@@H](CCC(=O)O)C(=O)O)cs3)cc2c(=O)[nH]1` the figure was 191 to 192 °C; with `CC(C)NC(=O)CC(=O)C=Cc1ccccc1[N+](=O)[O-]`, 132 to 135 °C.
In turn, `CC(C)(C)OC(=O)COc1ccc(NC(=O)NC(=O)c2ccc(C(N)=S)cc2)cc1` came in with a melting point of 248 °C.
For `C#Cc1cn(-c2c(Cl)cc(OC(F)(F)F)cc2Cl)nc1C#N` the value was 95.2 to 96 °C; for `CN(C)CCCNC(=O)c1ccccc1NS(=O)(=O)c1cccc(C(F)(F)F)c1`, 116 to 123 °C; for `NC(=O)c1nnn(Cc2ccc(C(=O)c3c(Cl)cccc3Cl)cc2)c1N`, 165 to 167 °C.
For `CC(C)=CCCC(C)CCS(=O)c1nc2ccccc2[nH]1` (single isomer, unassigned; (+)) the value was 122 to 124 °C.

The values above are taken from a melting point compilation (Tetko et al.; mined from patent text by program, amines drawn as free bases though some values may be those of a salt).
